Converted amounts (≈) assume the structure as drawn.
Columns and labels:
[1] = Drug level in iris ciliary body of pigmented male Dutch-belted rabbit treated with 2 x 25 uL topical dose of formulated compound in each eye and measured 4 hrs post dose by LC-MS/MS method; type: ADME, tissue-based, Oryctolagus cuniculus; settings: in vivo, topical_or_ocular
[2] = Drug level in aqueous humor of pigmented male Dutch-belted rabbit treated with 2 x 25 uL topical dose of formulated compound in each eye and measured 4 hrs post dose by LC-MS/MS method; type: ADME, tissue-based, Oryctolagus cuniculus; settings: in vivo, topical_or_ocular
Oryctolagus cuniculus = assay: Reduction in intraocular pressure in pigmented male Dutch-belted rabbit assessed as intraocular pressure level at trough treated with 2% 2 x 25 uL topical dose of formulated compound in right eye and measured after 1 to 2 hrs by non-contact tonometry; type: functional
[3] = (§1) Drug level in aqueous humor of pigmented male Dutch-belted rabbit assessed as compound formation treated with 2 x 25 uL topical dose of formulated (4S,6S)-4-Ethylamino-6-(3-nitrooxy-propyl)-7,7-dioxo-4,5,6,7-tetrahydro-7lambda6-thieno[2,3-b]thiopyran-2-sulfonic acid amide in each eye and measured 4 hrs post dose by LC-MS/MS method; type: ADME, tissue-based, Oryctolagus cuniculus; settings: in vivo, topical_or_ocular
[4] = as §1, with “iris ciliary body” for “aqueous humor”; type: ADME, tissue-based, Oryctolagus cuniculus; settings: in vivo, topical_or_ocular
Cynomolgus monkey [5] = assay: Reduction in intraocular pressure unilaterally lasered ocular hypertensive cynomolgus monkey treated with 2% 2 x 25 uL topical dose of formulated compound in right eye and measured after 2 hrs by ocular hypertension primate tonometry; type: functional, Macaca fascicularis
[6] = Drug level in iris ciliary body of pigmented male Dutch-belted rabbit assessed as compound formation treated with 2 x 25 uL topical dose of formulated (R)-3-(4-(Ethylamino)-1,1-dioxido-6-sulfamoyl-3,4-dihydro-2Hthieno[3,2-e][1,2]thiazin-2-yl)propyl nitrate in each eye and measured 4 hrs post dose by LC-MS/MS method; type: ADME, tissue-based, Oryctolagus cuniculus; settings: in vivo, topical_or_ocular
[7] = Drug level in aqueous humor of pigmented male Dutch-belted rabbit assessed as compound formation treated with 2 x 25 uL topical dose of formulated (R)-3-(4-(Ethylamino)-1,1-dioxido-6-sulfamoyl-3,4-dihydro-2Hthieno[3,2-e][1,2]thiazin-2-yl)propyl nitrate in each eye and measured 4 hrs post dose by LC-MS/MS method; type: ADME, tissue-based, Oryctolagus cuniculus; settings: in vivo, topical_or_ocular
Cynomolgus monkey [8] = assay: Reduction in intraocular pressure unilaterally lasered ocular hypertensive cynomolgus monkey treated with 1% 2 x 25 uL topical dose of formulated compound in right eye and measured after 2 hrs by ocular hypertension primate tonometry; type: functional, Macaca fascicularis

Description for physchem: Solubility of the compound

Drug uptake [1]	Drug uptake [2]	solubility (physchem) [µg/mL]	SMILES	Activity (Oryctolagus cuniculus) [mmHg]	also measured
Active	Active	11300 (≈ 27.3 mM)	CCN[C@H]1C[C@H](CCCO[N+](=O)[O-])S(=O)(=O)c2sc(S(N)(=O)=O)cc21	5	
Active	Active	2200 (≈ 5.31 mM)	CCN[C@H]1CN(CCCO[N+](=O)[O-])S(=O)(=O)c2sc(S(N)(=O)=O)cc21	5	Activity (Cynomolgus monkey [5]): 10.5 mmHg

Further lines, the molecule ahead of its results:

SMILES	Drug uptake [1]	Drug uptake [2]	solubility (physchem) [µg/mL]	Activity (Oryctolagus cuniculus) [mmHg]	also measured
CCN[C@H]1C[C@H](CCCO)S(=O)(=O)c2sc(S(N)(=O)=O)cc21					Drug metabolism [3]: metabolite_detected; Drug metabolism [4]: metabolite_detected
CCN[C@H]1CN(CCCO)S(=O)(=O)c2sc(S(N)(=O)=O)cc21					Drug metabolism [6]: metabolite_detected; Drug metabolism [7]: metabolite_detected
CCN[C@H]1CN(CCCOC)S(=O)(=O)c2sc(S(N)(=O)=O)cc21 [BRINZOLAMIDE]			500 (≈ 1.3 mM)		Activity (Cynomolgus monkey [8]): 2 mmHg

From ChEMBL document CHEMBL3414464, “Design, synthesis, and evaluation of NO-donor containing carbonic anhydrase inhibitors to lower intraocular pressure” (J Med Chem, 2015)
